{"source": "patent US20240389592A1", "about": "“FUNGICIDAL COMPOSITIONS” (SYNGENTA CROP PROTECTION AG, priority 2021, published 2024)", "key": {"[1]": {"test_system": "Glomerella lagenarium syn. Colletotrichum lagenarium (Anthracnose of cucurbits)", "experiment": "Glomerella lagenarium liquid culture growth inhibition (microtiter plate, PDB)", "type": "cell-based", "details": "single active ingredient, 72 hrs", "source_text": "A synergistic effect exists whenever the action of an active ingredient combination is greater than the sum of the actions of the individual components. The action to be expected E for a given active ingredient combination obeys the so-called COLBY formula and can be calculated as follows (COLBY, S. R. “Calculating synergistic and antagonistic responses of herbicide combination”. Weeds, Vol. 15, pages 20-22; 1967): • ppm=milligrams of active ingredient (=a.i.) per liter of spray mixture • X=% action by active ingredient A) using p ppm of active ingredient • Y=% action by active ingredient B) using q ppm of active ingredient. According to COLBY, the expected (additive) action of active ingredients A)+B) using p+q ppm of active ingredient is If the action actually observed (O) is greater than the expected action (E), then the action of the combination is super-additive, i.e. there is a synergistic effect. In mathematical terms, synergism corresponds to a positive value for the difference of (O-E). In the case of purely complementary addition of activities (expected activity), said difference (O-E) is zero. A negative value of said difference (O-E) signals a loss of activity compared to the expected activity. Glomerella Lagenarium Syn. Colletotrichum lagenarium (Anthracnose of Cucurbits): Conidia of the fungus from cryogenic storage were directly mixed into nutrient broth (PDB potato dextrose broth). A DMSO solution of the test compounds was placed into a microtiter plate (96-well format) and the nutrient broth containing the fungal spores was added to it. The test plates were incubated at 24 C and the inhibition of growth was determined photometrically after 72 hrs at 620 nm."}, "[2]": {"test_system": "Phakopsora pachyrhizi (Asian soybean rust)", "experiment": "Phakopsora pachyrhizi soybean leaf disk test after whole plant spray", "type": "in vivo", "details": "single active ingredient, evaluation 11 to 14 days after inoculation", "source_text": "(§1) A synergistic effect exists whenever the action of an active ingredient combination is greater than the sum of the actions of the individual components. The action to be expected E for a given active ingredient combination obeys the so-called COLBY formula and can be calculated as follows (COLBY, S. R. “Calculating synergistic and antagonistic responses of herbicide combination”. Weeds, Vol. 15, pages 20-22; 1967): • ppm=milligrams of active ingredient (=a.i.) per liter of spray mixture • X=% action by active ingredient A) using p ppm of active ingredient • Y=% action by active ingredient B) using q ppm of active ingredient.\n(§2) According to COLBY, the expected (additive) action of active ingredients A)+B) using p+q ppm of active ingredient is\n(§3) If the action actually observed (O) is greater than the expected action (E), then the action of the combination is super-additive, i.e. there is a synergistic effect. In mathematical terms, synergism corresponds to a positive value for the difference of (O-E). In the case of purely complementary addition of activities (expected activity), said difference (O-E) is zero. A negative value of said difference (O-E) signals a loss of activity compared to the expected activity.\nPhakopsora pachyrhizi (Soybean Rust):\nWhole soybean plants are treated with the recited active ingredients 4 weeks after planting. 1 day after spraying leaf disks are cut from the first trifoliate leaf. Five repetitions at each rate are conducted. The leaf disks are inoculated with Phakopsora pachyrhizi (Asian soybean rust) one day after treatment. Evaluation of the leaf disks is conducted 11 to 14 days after inoculation and the activity is derived from the relation of the treated vs untreated, infested check. The rates of the active ingredients used are given in Table as g active ingredient (a.i.)/ha."}, "[3]": {"test_system": "Septoria tritici (leaf blotch)", "experiment": "Septoria tritici liquid culture growth inhibition (microtiter plate, PDB)", "type": "cell-based", "details": "single active ingredient, 72 hrs", "source_text": "as §1, §2, §3\nSeptoria tritici (Leaf Blotch):\nConidia of the fungus from cryogenic storage were directly mixed into nutrient broth (PDB potato dextrose broth). A DMSO solution of the test compounds was placed into a microtiter plate (96-well format) and the nutrient broth containing the fungal spores was added to it. The test plates were incubated at 24 C and the inhibition of growth was determined photometrically after 72 hrs."}}, "data": [{"molecule": "O=C(Nc1ccccc1F)c1ccc(-c2noc(C(F)(F)F)n2)cc1", "note": "[Flufenoxadiazam, flufenoxadiazam]", "values": [{"measurement": "Observed Activity (%)", "setting": "[1]; 0.74 g ai/ha", "value": 20, "unit": "%"}, {"measurement": "Observed Activity (%)", "setting": "[1]; 2.22 g ai/ha", "value": 20, "unit": "%"}, {"measurement": "Observed Activity (%)", "setting": "[1]; 6.66 g ai/ha", "value": 50, "unit": "%"}, {"measurement": "Observed Activity (%)", "setting": "[1]; 20 g ai/ha, 24 C, 620 nm", "value": 90, "unit": "%"}, {"measurement": "Observed Activity (%)", "setting": "[2]; 0.1 g ai/ha", "value": 3, "unit": "%"}, {"measurement": "Observed Activity (%)", "setting": "[2]; 0.3 g ai/ha", "value": 5, "unit": "%"}, {"measurement": "Observed Activity (%)", "setting": "[2]; 0.9 g ai/ha", "value": 31, "unit": "%"}]}, {"molecule": "inpyrfluxam", "values": [{"measurement": "Observed Activity (%)", "setting": "[2]; 0.1 g ai/ha", "value": 13, "unit": "%"}, {"measurement": "Observed Activity (%)", "setting": "[2]; 0.3 g ai/ha", "value": 25, "unit": "%"}, {"measurement": "Observed Activity (%)", "setting": "[2]; 0.9 g ai/ha", "value": 68, "unit": "%"}, {"measurement": "Observed Activity (%)", "setting": "[3]; 0.0246 g ai/ha", "value": 20, "unit": "%"}, {"measurement": "Observed Activity (%)", "setting": "[3]; 0.074 g ai/ha", "value": 70, "unit": "%"}, {"measurement": "Observed Activity (%)", "setting": "[3]; 0.22 g ai/ha", "value": 90, "unit": "%"}]}, {"molecule": "CCOC(=O)c1cnn(Cc2ccc(O/C=C(\\OCC)C(F)(F)F)cc2)c1", "note": "[Compound A-1.2, ethyl 1-[[4-[[(1Z)-2-ethoxy-3,3,3-trifluoro-1-propen-1-yl]oxy]phenyl]methyl]-1H-pyrazole-4-carboxylate]", "values": [{"measurement": "Observed Activity (%)", "setting": "[1]; 10 g ai/ha", "value": 0, "unit": "%"}, {"measurement": "Observed Activity (%)", "setting": "[1]; 20 g ai/ha, 24 C, 620 nm", "value": 0, "unit": "%"}, {"measurement": "inhibition at 0.1 g/ha", "setting": "[2]; Phakopsora pachyrhizi, foliar, 0.1 g ai/ha, read-out: Observed Activity (%)", "value": 16, "unit": "%"}, {"measurement": "Observed Activity (%)", "setting": "[3]; 10 g ai/ha", "value": 0, "unit": "%"}, {"measurement": "Observed Activity (%)", "setting": "[3]; 20 g ai/ha, 24 C", "value": 0, "unit": "%"}]}, {"molecule": "CCC(=O)Oc1c(OC)ccnc1C(=O)N[C@@H](C)C(=O)O[C@@H](C)[C@@H](C)c1ccccc1C", "note": "[Metarylpicoxamid, metarylpicoxamid]", "values": [{"measurement": "Observed Activity (%)", "setting": "[2]; 0.1 g ai/ha", "value": 0, "unit": "%"}, {"measurement": "Observed Activity (%)", "setting": "[2]; 0.3 g ai/ha", "value": 51, "unit": "%"}]}]}
